Data as given in ChEMBL document CHEMBL3390846, “Synthesis and biological activity of new pyridone diaryl ether non-nucleoside inhibitors of HIV-1 reverse transcriptase” (Medchemcomm, 2010).

Tests used:
[1] = molecular target: Human immunodeficiency virus type 1 reverse transcriptase (Human immunodeficiency virus 1, UniProt Q72547, Y181C); test: Inhibition of polymerase activity of NNRTI-resistant HIV-1 LAI reverse transcriptase Y181C mutant
[2] = test system: Human immunodeficiency virus 1; test: Antiviral activity against wild type HIV-1 LAI infected in human MT4 cells assessed as inhibition of viral replication after 5 days by MTT assay in presence of 40% human serum; format: functional, organism-based; conditions: Human immunodeficiency virus 1, LAI, MT4, 120 h
[3] = test system: Human immunodeficiency virus 1; test: Antiviral activity against wild type HIV-1 LAI infected in human MT4 cells assessed as inhibition of viral replication after 5 days by MTT assay; format: functional, organism-based; conditions: Human immunodeficiency virus 1, LAI, MT4, 120 h
[4] = molecular target: Human immunodeficiency virus type 1 reverse transcriptase (Human immunodeficiency virus 1, UniProt Q72547); test: Inhibition of polymerase activity of wild type HIV-1 LAI reverse transcriptase
[5] = test system: Human immunodeficiency virus 1; test: Antiviral activity against NNRTI-resistant HIV-1 LAI harboring reverse transcriptase Y181C mutant infected in human MT4 cells assessed as inhibition of viral replication after 5 days by MTT assay; format: functional, organism-based; conditions: Human immunodeficiency virus 1, LAI, MT4, 120 h
[6] = molecular target: Human immunodeficiency virus type 1 reverse transcriptase (Human immunodeficiency virus 1, UniProt Q72547, K103N); test: Inhibition of polymerase activity of NNRTI-resistant HIV-1 LAI reverse transcriptase K103N mutant
[7] = test system: Human immunodeficiency virus 1; test: Antiviral activity against wild type HIV-1 LAI infected in human MT4 cells assessed as protection against virus-induced cell death after 5 days by MTT assay; format: functional, organism-based; conditions: Human immunodeficiency virus 1, LAI, MT4, 120 h
[8] = test system: Human immunodeficiency virus 1; test: Antiviral activity against NNRTI-resistant HIV-1 LAI harboring reverse transcriptase K103N mutant infected in human MT4 cells assessed as inhibition of viral replication after 5 days by MTT assay; format: functional, organism-based; conditions: Human immunodeficiency virus 1, LAI, MT4, 120 h
[9] = test system: Human immunodeficiency virus 1; test: Potency index, ratio of efavirenz IC50 to compound IC50 for wild type HIV-1 LAI in presence of 40% human serum; format: functional

| Structure (SMILES) | IC50 [1] | IC50 [2] | IC50 [3] | IC50 [4] | IC50 [5] | IC50 [6] | IC50 [7] | IC50 [8] | Ratio IC50 [9] |
| --- | --- | --- | --- | --- | --- | --- | --- | --- | --- |
| N#Cc1cc(Cl)cc(Oc2c(F)c(CCc3ccncc3)[nH]c(=O)c2Br)c1 | 0.001 µM | 0.023 µM | 0.005 µM | 0.002 µM | 0.011 µM | 0.001 µM | – | – | – |
| N#Cc1cc(Cl)cc(Oc2cc(CC(=O)N3CCc4ccccc4C3)[nH]c(=O)c2Cl)c1 | – | – | – | 0.03 µM | – | – | 0.035 µM | – | – |
| N#Cc1cc(Cl)cc(Oc2c(CCOc3ccncc3)c[nH]c(=O)c2Br)c1 | 0.008 µM | – | – | 0.01 µM | – | 0.014 µM | – | – | – |
| N#Cc1cc(Cl)cc(Oc2c(F)c(CCc3cccc(Cl)c3)[nH]c(=O)c2Br)c1 | 0.008 µM | – | – | 0.017 µM | – | 0.008 µM | – | – | – |
| N#Cc1cc(Cl)cc(Oc2c(F)c(CCc3ccccc3)[nH]c(=O)c2Cl)c1 | – | – | – | 0.007 µM | – | – | – | – | – |
| Cc1[nH]c(=O)c(Cl)c(Oc2cc(Cl)cc(C#N)c2)c1CCOc1ccccc1 | 0.006 µM | 0.013 µM | 0.004 µM | 0.006 µM | 0.011 µM | 0.005 µM | – | 0.024 µM | – |
| N#Cc1cc(Cl)cc(Oc2c(CCOc3cccnc3)c[nH]c(=O)c2Br)c1 | 0.008 µM | – | – | 0.011 µM | – | 0.016 µM | – | – | – |
| Cc1[nH]c(=O)c(Br)c(Oc2cc(Cl)cc(C#N)c2)c1Cc1ccccc1 | 0.008 µM | 0.032 µM | 0.006 µM | 0.01 µM | 0.029 µM | 0.007 µM | – | 0.016 µM | – |
| N#Cc1cc(Cl)cc(Oc2c(F)c(CC(=O)N3CCc4ccccc4C3)[nH]c(=O)c2Br)c1 | – | – | – | 0.012 µM | – | – | 0.05 µM | – | – |
| N#Cc1cc(Cl)cc(Oc2cc(CCc3ccccc3)[nH]c(=O)c2Cl)c1 | – | – | – | 0.008 µM | – | – | – | – | – |
| N#Cc1cc(Cl)cc(Oc2c(COCc3ccncc3)c[nH]c(=O)c2Br)c1 | 0.011 µM | 0.01 µM | 0.007 µM | 0.021 µM | 0.019 µM | 0.013 µM | – | 0.013 µM | – |
| Cc1[nH]c(=O)c(Cl)c(Oc2cc(Cl)cc(C#N)c2)c1CCCc1ccncc1 | 0.003 µM | 0.005 µM | 0.002 µM | 0.004 µM | 0.006 µM | 0.002 µM | – | – | 3 |
| CN(C)c1c(Oc2cc(Cl)cc(C#N)c2)cc(CC(=O)N2CCc3ccccc3C2)[nH]c1=O | – | – | – | 0.22 µM | – | – | 0.035 µM | – | – |
| N#Cc1cc(Cl)cc(Oc2cc(CCc3cccnc3)[nH]c(=O)c2Cl)c1 | 0.022 µM | – | – | 0.022 µM | – | 0.016 µM | – | – | – |
| N#Cc1cc(Cl)cc(Oc2c(Cc3ccccc3)c[nH]c(=O)c2Br)c1 | 0.041 µM | – | – | 0.034 µM | – | 0.071 µM | – | – | – |
| O=C1Nc2ccc(Cl)cc2[C@@](C#CC2CC2)(C(F)(F)F)O1 [EFAVIRENZ] | – | – | – | – | 0.003 µM | – | – | 0.065 µM | – |
| N#Cc1cc(Cl)cc(Oc2cc(CCc3ccncc3)[nH]c(=O)c2Cl)c1 | 0.021 µM | – | – | 0.019 µM | – | 0.014 µM | – | – | – |
| N#Cc1cc(Cl)cc(Oc2cc(CCc3nc4ccccc4o3)[nH]c(=O)c2Cl)c1 | 0.004 µM | – | – | 0.006 µM | – | 0.016 µM | – | – | – |
| N#Cc1cc(Cl)cc(Oc2cc(CCc3ccccn3)[nH]c(=O)c2Cl)c1 | 0.033 µM | – | – | 0.021 µM | – | 0.078 µM | – | – | – |
| N#Cc1cc(Cl)cc(Oc2cc(CCc3cccc(Cl)c3)[nH]c(=O)c2Cl)c1 | 0.007 µM | – | – | 0.012 µM | – | 0.006 µM | – | – | – |
